ChEMBL document CHEMBL3885881, “DrugMatrix”

Species on record: Rattus norvegicus
Assay: DrugMatrix - Regimen: Daily Repeat
Format: toxicity, organism-based, Sprague-Dawley
Design: regimen Daily Repeat, gender Male, age 6-8 weeks
Conditions: in vivo, po, route oral GAVAGE, vehicle 100 % WATER; for ABSOLUTE BASOPHIL / ABSOLUTE EOSINOPHIL / ABSOLUTE LYMPHOCYTE / ABSOLUTE MONOCYTE / ABSOLUTE SEGMENTED NEUTROPHIL / BASOPHIL / EOSINOPHIL / ERYTHROCYTE COUNT / HEMATOCRIT / HEMOGLOBIN / LEUKOCYTE COUNT / LYMPHOCYTE / MEAN CORPUSCULAR HEMOGLOBIN / MEAN CORPUSCULAR HEMOGLOBIN CONCENTRATION / MEAN CORPUSCULAR VOLUME / MONOCYTE / NEUTROPHIL / NUCLEATED RED BLOOD CELLS / PLATELET COUNT: tissue Blood; for ALANINE AMINOTRANSFERASE / ALBUMIN / ALKALINE PHOSPHATASE / ASPARTATE AMINOTRANSFERASE / BLOOD UREA NITROGEN / CARBON DIOXIDE / CHLORIDE / CHOLESTEROL / CREATINE PHOSPHOKINASE / CREATININE / GLUCOSE / LACTATE DEHYDROGENASE / LIPASE / PHOSPHORUS / POTASSIUM / SODIUM / TOTAL BILIRUBIN / TOTAL PROTEIN / URIC ACID: tissue Plasma
[1] = 0 mg/kg, 72 h, dose level Control, time 3 day
[2] = 0 mg/kg, 120 h, dose level Control, time 5 day
[3] = 56 mg/kg, 72 h, dose level Low, time 3 day

SMILES: CC[C@H]1OC(=O)[C@H](C)[C@@H](O[C@H]2C[C@@](C)(OC)[C@@H](O)[C@H](C)O2)[C@H](C)[C@@H](O[C@@H]2O[C@H](C)C[C@H](N(C)C)[C@H]2O)[C@](C)(OC)C[C@@H](C)C(=O)[C@H](C)[C@@H](O)[C@]1(C)O [CLARITHROMYCIN]
- ABSOLUTE BASOPHIL [1]: 0 CELLS/uL
- ABSOLUTE EOSINOPHIL [1]: 91.5 CELLS/uL
- ABSOLUTE LYMPHOCYTE [1]: 14108.83 CELLS/uL
- ABSOLUTE MONOCYTE [1]: 81 CELLS/uL
- ABSOLUTE SEGMENTED NEUTROPHIL [1]: 818.67 CELLS/uL
- BASOPHIL [1]: 0%
- EOSINOPHIL [1]: 0.67%
- ERYTHROCYTE COUNT [1]: 5.56 x10E6/uL
- HEMATOCRIT [1]: 34.5%
- HEMOGLOBIN [1]: 13.45 G/DL
- LEUKOCYTE COUNT [1]: 15.1 x10E3/uL
- LYMPHOCYTE [1]: 93%
- MEAN CORPUSCULAR HEMOGLOBIN [1]: 24.2 pg
- MEAN CORPUSCULAR HEMOGLOBIN CONCENTRATION [1]: 38.98 G/DL
- MEAN CORPUSCULAR VOLUME [1]: 62.07 fL
- MONOCYTE [1]: 0.5%
- NEUTROPHIL [1]: 5.83%
- NUCLEATED RED BLOOD CELLS [1]: 0 /100WBC
- PLATELET COUNT [1]: 1193.33 x10E3/uL
- ALANINE AMINOTRANSFERASE [1]: 60.33 u/L
- ALBUMIN [1]: 4 G/DL
- ALKALINE PHOSPHATASE [1]: 334.83 u/L
- ASPARTATE AMINOTRANSFERASE [1]: 74.5 u/L
- BLOOD UREA NITROGEN [1]: 13.5 mg/dL
- CARBON DIOXIDE [1]: 30.33 mmol/L
- CHLORIDE [1]: 98.33 MEQ/L
- CHOLESTEROL [1]: 71.17 mg/dL
- CREATINE PHOSPHOKINASE [1]: 212 u/L
- CREATININE [1]: 0.21 mg/dL
- GLUCOSE [1]: 173.17 mg/dL
- LACTATE DEHYDROGENASE [1]: 101.5 u/L
- LIPASE [1]: 24.17 u/L
- PHOSPHORUS [1]: 10.87 mg/dL
- POTASSIUM [1]: 6.06 MEQ/L
- SODIUM [1]: 140.58 MEQ/L
- TOTAL BILIRUBIN [1]: 0.17 mg/dL
- TOTAL PROTEIN [1]: 5.9 G/DL
- URIC ACID [1]: 1.23 mg/dL
- ABSOLUTE BASOPHIL [2]: 0 CELLS/uL
- ABSOLUTE EOSINOPHIL [2]: 34.5 CELLS/uL
- ABSOLUTE LYMPHOCYTE [2]: 8181 CELLS/uL
- ABSOLUTE MONOCYTE [2]: 82.67 CELLS/uL
- ABSOLUTE SEGMENTED NEUTROPHIL [2]: 435.17 CELLS/uL
- BASOPHIL [2]: 0%
- EOSINOPHIL [2]: 0.5%
- ERYTHROCYTE COUNT [2]: 5.31 x10E6/uL
- HEMATOCRIT [2]: 33.83%
- HEMOGLOBIN [2]: 13.37 G/DL
- LEUKOCYTE COUNT [2]: 8.73 x10E3/uL
- LYMPHOCYTE [2]: 93.5%
- MEAN CORPUSCULAR HEMOGLOBIN [2]: 25.2 pg
- MEAN CORPUSCULAR HEMOGLOBIN CONCENTRATION [2]: 39.53 G/DL
- MEAN CORPUSCULAR VOLUME [2]: 63.73 fL
- MONOCYTE [2]: 1%
- NEUTROPHIL [2]: 5%
- NUCLEATED RED BLOOD CELLS [2]: 0 /100WBC
- PLATELET COUNT [2]: 1057.33 x10E3/uL
- ALANINE AMINOTRANSFERASE [2]: 54.33 u/L
- ALBUMIN [2]: 4.07 G/DL
- ALKALINE PHOSPHATASE [2]: 308.67 u/L
- ASPARTATE AMINOTRANSFERASE [2]: 83.17 u/L
- BLOOD UREA NITROGEN [2]: 14 mg/dL
- CARBON DIOXIDE [2]: 34 mmol/L
- CHLORIDE [2]: 98 MEQ/L
- CHOLESTEROL [2]: 71.33 mg/dL
- CREATINE PHOSPHOKINASE [2]: 266.5 u/L
- CREATININE [2]: 0.27 mg/dL
- GLUCOSE [2]: 133 mg/dL
- LACTATE DEHYDROGENASE [2]: 127 u/L
- LIPASE [2]: 11.67 u/L
- PHOSPHORUS [2]: 10.6 mg/dL
- POTASSIUM [2]: 6.17 MEQ/L
- SODIUM [2]: 142.68 MEQ/L
- TOTAL BILIRUBIN [2]: 0.15 mg/dL
- TOTAL PROTEIN [2]: 6.03 G/DL
- URIC ACID [2]: 0.75 mg/dL
- ABSOLUTE BASOPHIL [3]: 0 CELLS/uL
- ABSOLUTE EOSINOPHIL [3]: 59.33 CELLS/uL
- ABSOLUTE LYMPHOCYTE [3]: 13806.33 CELLS/uL
- ABSOLUTE MONOCYTE [3]: 0 CELLS/uL
- ABSOLUTE SEGMENTED NEUTROPHIL [3]: 1301 CELLS/uL
- BASOPHIL [3]: 0%
- EOSINOPHIL [3]: 0.33%
- ERYTHROCYTE COUNT [3]: 5.56 x10E6/uL
- HEMATOCRIT [3]: 35.47%
- HEMOGLOBIN [3]: 13.53 G/DL
- LEUKOCYTE COUNT [3]: 15.17 x10E3/uL
- LYMPHOCYTE [3]: 91.67%
- MEAN CORPUSCULAR HEMOGLOBIN [3]: 24.37 pg
- MEAN CORPUSCULAR HEMOGLOBIN CONCENTRATION [3]: 38.2 G/DL
- MEAN CORPUSCULAR VOLUME [3]: 63.77 fL
- MONOCYTE [3]: 0%
- NEUTROPHIL [3]: 8%
- NUCLEATED RED BLOOD CELLS [3]: 0 /100WBC
- PLATELET COUNT [3]: 1156.33 x10E3/uL
- ALANINE AMINOTRANSFERASE [3]: 46.33 u/L
- ALBUMIN [3]: 4.03 G/DL
- ALKALINE PHOSPHATASE [3]: 259.67 u/L
- ASPARTATE AMINOTRANSFERASE [3]: 70.67 u/L
- BLOOD UREA NITROGEN [3]: 12.33 mg/dL
- CARBON DIOXIDE [3]: 30.33 mmol/L
- CHLORIDE [3]: 99.67 MEQ/L
- CHOLESTEROL [3]: 68.33 mg/dL
- CREATINE PHOSPHOKINASE [3]: 185.33 u/L
- CREATININE [3]: 0.19 mg/dL
- GLUCOSE [3]: 143.67 mg/dL
- LACTATE DEHYDROGENASE [3]: 137.33 u/L
- LIPASE [3]: 10.67 u/L
- PHOSPHORUS [3]: 10.87 mg/dL
- POTASSIUM [3]: 6.51 MEQ/L
- SODIUM [3]: 141.97 MEQ/L
- TOTAL BILIRUBIN [3]: 0.2 mg/dL
- TOTAL PROTEIN [3]: 5.93 G/DL
- URIC ACID [3]: 1.4 mg/dL
